Measured values as given in PubChem BioAssay AID2401 (Southern Research Specialized Biocontainment Screening …, 2010).

system: S. Typhimurium GFP reporter counter-screen, fluorescence, 4 h; assay: S. Typhimurium nonspecific reporter signal inhibition – Salmonella Typhimurium, GFP fluorescence, counter-screen for PhoP regulon inhibitor project, dose response (AID 2401);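 also: S. typhimurium with Mg-insensitive nmpC-GFP reporter grown at 10 µM Mg2+; drop in reporter fluorescence reflects general culture growth inhibition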

SMILES	IC50 [µM]
Cc1ccc(S(=O)(=O)Nc2cc(Cl)c(O)c3ncccc23)cc1	29
O=Nc1ccc(O)c2ncccc12	61.3
CCCCCCCCCCCCCCCCn1cc[n+](C)c1	16.3
O=C(Cn1nc(CNc2ccc(Cl)cc2)[n+]2c1CCCCC2)c1ccc(Br)cc1	72.1
CCC(C)(C)c1ccc(OCCCC[n+]2ccc(C)cc2)c(C(C)(C)CC)c1	48.4
c1ccc2c(c1)Sc1ccccc1N2CC1CN2CCC1CC2 (configuration not stated)	108
OCc1ccc(O)c2ncccc12	123
Cc1ccc(-c2c[n+](CC(=O)Nc3nc(-c4ccc(F)cc4)cs3)c3n2CCC3)cc1	42.3
C#CCOCCOCCOCCNc1nc(N2CCN(C(=O)CCCCCCCCCCNC(=O)[C@H](CO)n3cc(CCCCCN)nn3)CC2)nc(N2CCN(C(=O)CCCCCCCCCCNC(=O)[C@H](CCCN=C(N)N)n3cc(C[C@@H](C)CC)nn3)CC2)n1	86.2
Oc1ccc(/C=N/Nc2nccnc2Cl)c(O)c1	35
O=[N+]([O-])c1cc(O)c2ncccc2c1	16.8
NC1CCN(c2nc3c(cc2F)c(=O)c(C(=O)O)cn3-c2ccc(F)cc2F)C1 (configuration not stated)	1.13
CCCC(=O)NC(c1ccc(N(C)C)cc1)c1ccc2cccnc2c1O (configuration not stated)	107
COc1ccc(C(C[N+](=O)[O-])C2(c3ccc(OC)c(OC)c3)C(=O)c3ccccc3C2=O)cc1 (configuration not stated)	23.2
O=C(CN1CCCC1)N/N=C/c1c(O)ccc2ccccc12	29.9
NC1=NC[C@H](c2ccccc2)N1CCCCC1CCCCC1	52.2
COc1cc(Cc2cc(N)nc(N)n2)cc(OC)c1OC	0.74
C[CH2][Hg][S]c1ccccc1C(=O)O	54.9
O=C(Oc1c(CN2CCOCC2)cc(Cl)c2cccnc12)c1ccc(F)cc1	136
Nc1ccc2nc(-c3cc(Cl)c(N)c(Cl)c3)[nH]c2c1	80.7
O=C(N/N=C/c1ccc([N+](=O)[O-])o1)c1ccc(O)cc1	36.8
CCn1cc(C(=O)O)c(=O)c2cc(F)c(N3CCN(C(=O)Nc4ccccc4)CC3)cc21	75.2

SMILES	IC50 [µM]
CCn1cc(C(=O)O)c(=O)c2cc(F)c(N3CCN(C(=S)NC(=O)c4ccc(F)cc4)CC3)cc21	104
O=[N+]([O-])c1ccc(-c2ccn[nH]2)o1	39.8
O=C(Nc1ccccc1)Nc1ccc(Cl)c([N+](=O)[O-])c1	42.4
CC(C)CCNCC(O)CON=C1c2ccccc2-c2ccccc21 (configuration not stated)	126
Cc1nc2c(=O)n(C)c(=O)nc-2n(C)n1	1.09
Cc1ccc(Nc2c3c(nc4ccccc24)CCC3)cc1	122
COc1ccccc1CNCCc1ccc(F)cc1	35
Nc1[nH]c(=O)ncc1F	92.7
Nc1ncn(C2O[C@H](CO)[C@@H](O)[C@H]2O)c(=O)n1 (some centres not stated)	30.8
CCCCCCOC(=O)C[N+](C)(C)CCOC1CC2CCC1(C)C2(C)C (configuration not stated)	31.9
CCOc1ccc(Nc2nc(N)c3ccccc3n2)cc1	86.2
CCCCOc1ccc(Br)cc1CSC(=N)N	75.5
NC1=NC[C@@H](Cc2ccc(O)cc2)N1CCCCC1CCCCC1	32.9
CCn1cc(C(=O)O)c(=O)c2cc(F)c(N3CCN(C(=S)Nc4ccccc4OC)CC3)cc21	38.8
CCCNC(=O)c1cn(CC)c2cc(N3CCN(C)CC3)c(F)cc2c1=O	48.2
O=C1NC(=S)S/C1=C\C=C\c1ccc([N+](=O)[O-])o1	21.7
Oc1c(CN2CCc3ccccc3C2)cc(Cl)c2cccnc12	17.4
O=C(NC(=S)NNC(=O)c1ccccc1O)c1ccco1	41.5
C1=C(CCNCc2ccccc2)CCCC1	7.93
Oc1ccc(N=Cc2ccc(O)c(O)c2)cc1	118
CCCCOc1ccc(CSC(=N)N)cc1[N+](=O)[O-]	115
CCCCCCCCCn1c2c(c(=N)c3c1CCC3)CCC2	37.2

SMILES	IC50 [µM]
CC(=O)NC(c1ccc(Cl)cc1Cl)c1ccc2cccnc2c1O (configuration not stated)	48.8
O=C(N/N=C/c1cc2c3c(c1O)CCCN3CCC2)c1ccccc1O	95.3
O=C(NC(CO)C(O)c1ccc([N+](=O)[O-])cc1)C(Cl)Cl (configuration not stated)	10.1
O=C(C[n+]1cccc(CNC(=O)c2ccc(OC(F)F)cc2)c1)Nc1ccc(SC(F)F)cc1	78.4
Oc1c(I)cc(Cl)c2cccnc12	8.56
CC(C)Oc1ccc(Cc2cnc(N)nc2N)cc1	34
Fc1ccc(Nc2nc(NCc3ccco3)c3ccccc3n2)cc1	28.2
CC(C)NC1=C(Cl)C(=O)c2ccccc2C1=O	38.3
Oc1cccc(/C=N/NC(=S)Nc2cccnc2)c1O	28.5
O=c1[nH][nH]c(-c2ccccc2O)c1C(C[N+](=O)[O-])c1ccc(Br)cc1 (configuration not stated)	51.7
O=C(N/N=C\c1cccc([N+](=O)[O-])c1O)C1COc2ccccc2O1 (configuration not stated)	54.6
COc1c(N2CCN[C@H](C)C2)c(F)cc2c(=O)c(C(=O)O)cn(C3CC3)c12	0.78
CCCCNC(=O)c1cn(CC)c2cc(N3CCN(C)CC3)c(F)cc2c1=O	41.8
CCCCCc1ccc(OCCC[n+]2ccccc2)c(CCCCC)c1	70.1
CCCCCCCCCCCCCCCC[N+](C)(C)CC	25.4
CCN(CC(=O)NC(C)(C)C)C(=O)COc1c(Cl)cc(Cl)c2ccc(C)nc12	82.4
C[C@H]1O[C@@H](n2cc(F)c(=O)[nH]c2=O)[C@H](O)[C@@H]1O	38.6
COc1cc(/C=C/[N+](=O)[O-])ccc1O	32.6
O=C(N/N=C/c1cc(Cl)ccc1O)c1ccncc1	20.6
COC12C(COC(N)=O)C3=C(C(=O)C(C)=C(N)C3=O)N1CC1C2N1C (configuration not stated)	77.2
CNC(=S)N1CCN(c2c(F)cc3c(=O)c(C(=O)O)cn(C4CC4)c3c2OC)CC1C (configuration not stated)	44.2
O=C(NC(CO)Cc1ccc([N+](=O)[O-])cc1)C(Cl)Cl (configuration not stated)	12.7

SMILES	IC50 [µM]
CN1CCN(C(c2ccc(C(F)(F)F)cc2)c2cc(Cl)c3cccnc3c2O)CC1 (configuration not stated)	21
O=C(/C=C/c1ccccc1Cl)c1ccccc(=O)c1O	23.8
O=C(CSc1nc2ccccc2s1)N/N=C/c1cc([N+](=O)[O-])ccc1O	88.4
COc1cccc(/C=N/Nc2ncc(C(F)(F)F)cc2Cl)c1O	126
Cc1ccc(C(=O)Sc2cccccc2=O)cc1	9.74
CCCCCCCCCCCCCCCC[N+](C)(C)C	30.5
Oc1ccc(CN2CCN(Cc3ccccc3)CC2)c2cccnc12	35
Clc1ccc(Cl)c(OCCCCNCc2ccccc2)c1	97.6
C/C(=N\Nc1ncnc2sc(C)c(C)c12)c1ccccn1	26.4
O=[N+]([O-])c1ccc(O)c2ncccc12	2.37
Oc1c(Br)cc(Br)cc1C=NCc1ccccc1	99.2
N=c1n(CC(=O)c2ccc(Br)s2)c2ccccc2n1Cc1ccccc1	40.4
NCCc1c(-c2ccccc2)n(-c2ccccc2)c2ccccc12	43.7
O=C(N[C@H](CO)[C@H](O)c1ccc([N+](=O)[O-])cc1)C(Cl)Cl	9.59
CC(C)COc1ccc(Cc2cnc(N)nc2N)cc1	61.8
O=C1C(SCCO)=C(SCCO)C(=O)c2ccccc21	68
C/C(CC(=O)Nc1ccc(Cl)c(C(F)(F)F)c1)=N\NC(=O)c1cc2ccccc2cc1O	80.6
O=C(C[n+]1cc(-c2ccc(Cl)cc2)n2c1CCC2)Nc1nc(-c2ccc(F)cc2)cs1	38.3
OCCN1CCN(Cc2cc(Cl)c3cccnc3c2O)CC1	75.2
Oc1cccc(Nc2nc(NCC3CCCO3)c3ccccc3n2)c1 (configuration not stated)	99.8
OCCNCc1c(OCc2ccc(Cl)cc2)ccc2ccccc12	90
